Source: patent publication US20230383320A1, “METHOD FOR PRODUCING MONOUNSATURATED FATTY ACID HAVING 16 CARBON ATOMS” (SHIZUOKA PREFECTURAL UNIVERSITY CORPORATION, priority 2022, published 2023)

tested on: Staphylococcus aureus; test: not given; conditions: reported in Non Patent Literature 1; cited from earlier work

Row | Molecule | antibacterial activity against Staphylococcus aureus | selective antibacterial activity (S. aureus versus S. epidermidis)
1 | CCCCCCCCC/C=C\CCCCC(=O)O [sapienic acid] | strong antibacterial activity | –
2 | CCCCCCCC/C=C\CCCCCC(=O)O [7-cis-hexadecenoic acid] | – | selective antibacterial activity similar to sapienic acid
3 | CCCCCC/C=C\CCCCCCCC(=O)O [palmitoleic acid] | – | selective antibacterial activity similar to sapienic acid

tested on: Bifidobacterium sp. strain JCM7042; test: L-cysteine concentration in MRS liquid medium, production of 7-cis-hexadecenoic acid; assay type: cell-based; conditions: 5.0 g/L in MRS liquid medium
Experimental: MRS media with various amounts of L-cysteine added were prepared to investigate their effect on the production of 7-cis-hexadecenoic acid by bifidobacteria. Specifically, the test was performed as follows. Bifidobacterium sp. strain JCM7042 (strain JCM7042) was used as the Bifidobacterium. L-cysteine hydrochloride monohydrate was added at 0.001 g/L, 0.01 g/L, 0.1 g/L, 0.5 g/L, 1.0 g/L, and 5.0 g/L to the MRS liquid medium with the composition shown in Table 1 to prepare L-cysteine-containing MRS liquid media. These MRS liquid media with L-cysteine and the control MRS liquid medium (without added L-cysteine) were cultured in the same manner as in Example 1. Using the same methods and conditions as in Example 1, the 7-cis-hexadecenoic acid in each culture solution was quantified by gas chromatography (GC) analysis.

Row | Molecule | production of 7-cis-hexadecenoic acid
4 | Cl.N[C@@H](CS)C(=O)O.O [L-Cysteine Hydrochloride (1-hydrate)] | greatly inhibited

tested on: Staphylococcus epidermidis; test: not given; conditions: reported in Non Patent Literature 1; cited from earlier work

Row | Molecule | antibacterial activity against Staphylococcus epidermidis
5 | CCCCCCCCC/C=C\CCCCC(=O)O [sapienic acid] | not against Staphylococcus epidermidis

tested on: Staphylococcus aureus; test: not given; conditions: 7-cis-hexadecenoic acid itself; cited from earlier work

Row | Molecule | MIC against Staphylococcus aureus
6 | CCCCCCCC/C=C\CCCCCC(=O)O [7-cis-hexadecenoic acid] | about 3 μg/mL

tested on: Bifidobacterium sp. strain JCM7042; test: Effect of components added to TOS liquid medium on bifidobacteria growth and 7-cis-C16:1 production; assay type: cell-based; conditions: component added to TOS liquid medium, amount per liter (0.1 to 10 g); compared to control without the component; 37° C.

Row | Molecule | 7-cis-C16:1 Production | Bifidobacteria Growth
7 | O=C([O-])[O-].[Ca+2] [Calcium Carbonate] | Fair | Excellent
8 | O=C([O-])O.[Na+] [Sodium Hydrogen Carbonate] | Poor | Poor
9 | CCCCCCCCCCCCCC(=O)O [Myristic Acid (free form), Myristic Acid] | Poor | Poor
10 | O=C([O-])[O-].[K+].[K+] [Potassium Carbonate] | Poor | Poor
11 | CCCCCCCC/C=C\CCCCCCCC(=O)OC [Oleic Acid Methyl Ester] | Good | Excellent
12 | Triton X-100 | Poor | Poor
13 | CCCCCCCCCCCC(=O)O [Lauric Acid (free form), Lauric Acid] | Poor | Poor
14 | CCCCCCCCCCCC(=O)OC [Lauric Acid Methyl Ester] | Good | Good
15 | O=C(O)CC(=O)C(=O)O [Oxaloacetic Acid] | Poor | Good
16 | Tergitol NP40 | Good | Good
17 | O=C([O-])[O-].[Na+].[Na+] [Sodium Carbonate] | Poor | Poor
18 | CCCCCCCCCCCCCCCC(=O)O [Palmitic Acid (free form), Palmitic Acid] | Poor | Poor
19 | Polysorbate 80 | Poor | Good
20 | O=C([O-])O.[K+] [Potassium Hydrogen Carbonate] | Fair | Poor
21 | CCCCCCCCCCCCCC(=O)OC [Myristic Acid Methyl Ester] | Poor | Poor
22 | Anisidine | Good | Good
23 | Cl.N[C@@H](CS)C(=O)O.O [L-Cysteine Hydrochloride (1-hydrate)] | Excellent | Excellent
24 | CCCCCCCCCCCCCCCC(=O)OC [Palmitic Acid Methyl Ester] | Poor | Poor
25 | CCCCCCCC/C=C\CCCCCCCC(=O)O [Oleic Acid (free form), Oleic Acid] | Poor | Fair
